Test results as given in article PMC4992173, “Divergent synthesis and identification of the cellular targets of deoxyelephantopins” (Nature Communications, 2016).
pIC50: −log10 of the molar value.

Experiments:
[1] = target: T1, wt PPARG (Homo sapiens, UniProt P37231); assay: Gel-based competitive IC50 determination in 293T lysates: WT PPARγ; assay type: binding; conditions: wt PPARG expressed in 293T cells, lysate, 1 h, then 10 μM 24c-Cy3
T1 construct: host or cells: 293T
Text: Finally, we sought to understand the molecular basis for PPARγ binding by the synthetic analogues of deoxyelephantopin through identification of the precise covalently modified amino acid site. There is literature precedent for oxidized fatty acids containing an α,β-unsaturated ketone to form a covalent bond with a cysteine in the ligand-binding site of PPARγ[53]. More recently, synthetic ligands binding reversibly to a distinct site were identified. […] Bearing in mind that the structurally simplified, and thus less prone to MS/MS fragmentation, probe 23c binds PPARγ as efficiently as 24c (Supplementary Fig. 13), we treated the recombinant nuclear receptor with the former compound, digested the protein and analysed the resulting peptides by LC–MS/MS. […]
Supplementary figure 21: Top: Fluorescence gels corresponding to the IC50 curves presented in the main text Figure 8b. γ fluorescence signal in percentage after 19a treatment. […]
(§1) Biological materials. […] Protein concentration was determined using the Bradford assay (Bio-Rad).
(§2) Cell culture and preparation of lysates. […] Cells were lysed by sonication to form cell lysates and protein concentration was determined using the Bradford […]

[2] = tested on: MCF7 cells; assay: Caspase activation (FITC-VAD-FMK), Annexin V and propidium iodide staining; assay type: cell-based, human; conditions: 20 μM, 8 h
Description: We began our biological investigations by assaying the cytotoxicity of natural deoxyelephantopin (DEP) and its unnatural analogues in four different cancer cell lines (Fig. 5a, Supplementary Figs 6–8).
Figure 5 Assessing the cytotoxicity of deoxyelephantopin (DEP) and analogues. (a) Cell viability measurements in four different cancer cell lines. Cells were treated with compounds for 3 days, the nuclei were stained with DAPI and counted (EC50 values±s.d. shown; n=3). **P<0.005 and ***P<0.0005 by two-sided Student's t-test. (b) Detection of caspase activation and apoptosis in MCF7 cells using FITC-VAD-FMK fluorescent probe (top) or Annexin V staining (bottom). The cells were treated with 1 μM staurosporine (positive control) or 20 μM deoxyelephantopin for 8 h. Confocal microscopy images are shown. EC50, effector concentration for half-maximum response. Scale bars, 30μm. […]
as §1, §2
’ cells/mL and HeLa: 1 ’ cells/mL) in a 96-well plate and allowed to attach overnight. […] Cells were imaged using a SpectraMax i3 plate reader equipped with a SpectraMax MiniMax imaging cytometer (Molecular Devices). […]
Caspase activity labeling for fluorescence cell imaging. […]

T1 sequence (P37231 whole entry): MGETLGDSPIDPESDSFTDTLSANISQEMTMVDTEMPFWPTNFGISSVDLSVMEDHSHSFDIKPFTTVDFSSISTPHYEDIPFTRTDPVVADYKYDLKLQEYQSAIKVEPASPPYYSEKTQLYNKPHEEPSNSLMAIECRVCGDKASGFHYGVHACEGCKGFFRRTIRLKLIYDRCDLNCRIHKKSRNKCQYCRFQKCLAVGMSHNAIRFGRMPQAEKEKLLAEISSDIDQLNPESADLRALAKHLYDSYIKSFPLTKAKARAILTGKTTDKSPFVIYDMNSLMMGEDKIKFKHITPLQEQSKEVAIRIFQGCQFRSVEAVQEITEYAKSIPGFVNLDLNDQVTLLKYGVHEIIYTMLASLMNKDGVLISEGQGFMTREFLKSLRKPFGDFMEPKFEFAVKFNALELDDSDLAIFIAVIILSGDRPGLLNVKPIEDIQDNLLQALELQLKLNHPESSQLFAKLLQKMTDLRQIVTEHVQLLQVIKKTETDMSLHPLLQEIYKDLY

SMILES | pIC50 [1] | cause of cell death (FITC-VAD-FMK, Annexin-V-FLUOS staining) [2] | necrotic death (propidium iodide staining) [2]
C=C(C)C(=O)O[C@H]1CC2=C[C@H](C/C=C\[C@H]3OC(=O)C(=C)[C@H]13)OC2=O [19a] | 4.72 |  | 
C=C(C)C(=O)O[C@H]1CC2=C[C@@H](C/C(C)=C/[C@H]3OC(=O)C(=C)[C@H]13)OC2=O [deoxyelephantopin] |  | caspase-mediated apoptosis | did not indicate any significant necrotic death
